Laboratory results published in ChEMBL document CHEMBL4308882, “Synthesis, biological evaluation and molecular dynamic simulations of novel Benzofuran-tetrazole derivatives as potential agents against Alzheimer's disease” (2019).
The source made the active and inactive calls. The calls are words filed in the database; no cut-off is given here.

Legend:
Caenorhabditis elegans [1] = assay: Protection against amyloid beta aggregation-induced paralysis in Caenorhabditis elegans CL4176 harboring temperature-inducible human amyloid beta transgene assessed as inhibition of paralysis at 1 mM pretreated for 48 hrs at 15 degC followed by heat stress stimulation to 25 degC for 35 hrs relative to control; type: functional
Caenorhabditis elegans [2] = assay: Antialzheimer activity in Caenorhabditis elegans CL4176 harboring temperature-inducible human amyloid beta transgene assessed as reduction in amyloid beta aggregation at 1 mM pretreated for 48 hrs at 15 degC followed by heat stress stimulation to 25 degC for 35 hrs by thioflavin-s staining based microscopic analysis; type: functional, organism-based
Caenorhabditis elegans [3] = assay: Antialzheimer activity in Caenorhabditis elegans […] harboring temperature-inducible human amyloid beta transgene assessed as reduction in AChE level at 1 mM pretreated for 48 hrs at 15 degC followed by heat stress stimulation to 25 degC for 35 hrs by amplex red assay; type: functional, organism-based

Structure (SMILES)	inhibition at 1000 µM (Caenorhabditis elegans [1]) [%]	inhibition (Caenorhabditis elegans [2])	Activity (Caenorhabditis elegans [3])
CC(C)(C)n1nnnc1C(Nc1ccc(F)cc1)c1cn(-c2ccccc2)nc1-c1cc2ccccc2o1 (stereo unspecified)	56.5	Active	Active
Cc1ccc(NC(c2cn(-c3ccc(Cl)cc3)nc2-c2oc3ccccc3c2C)c2nnnn2C(C)(C)C)cc1 (stereo unspecified)	46.7	Active	Active
Cc1ccc(NC(c2cn(-c3ccccc3)nc2-c2cc3ccccc3o2)c2nnnn2C(C)(C)C)cc1F (stereo unspecified)	45.4	Active	Active
Cc1ccc(NC(c2cn(-c3ccc(F)cc3)nc2-c2cc3ccccc3o2)c2nnnn2C(C)(C)C)cc1 (stereo unspecified)	42.1	Active	
COc1ccc(NC(c2cn(-c3ccccc3)nc2-c2oc3ccccc3c2C)c2nnnn2C(C)(C)C)cc1 (stereo unspecified)	67.1	Active	Active
CC(C)(C)n1nnnc1C(Nc1ccc(C(F)(F)F)c(Br)c1)c1cn(-c2ccccc2)nc1-c1cc2ccccc2o1 (stereo unspecified)	63.8	Active	
